Series [1] can be described thus: pH and acid/base forms of BCFA in HBSS medium. As to conditions: 5 mM added to HBSS medium. In kind it is physicochemical. The protocol: (§1) Before treatments, cell culture medium was replaced by HBSS (Hanks' Balanced Salt Solution; Sigma). Cells were then treated as indicated in the text and directly lysed with Laemmli buffer. For BCFAs and SCFAs treatments, 100 mM stock solutions in water were first prepared from the corresponding acidic form (e.g. isobutyric acid) or from the sodium salt of the corresponding basic form (e.g. sodium isobutyrate) and then further diluted in cell culture media (HBSS). When needed, the pH of cell culture medium was set using either 0.1 M NaOH or 0.1 M HCl solution. […] For TNFα treatments, CACO2 cells were first incubated with BCFAs or SCFAs for 1 hour and then incubated with 100 ng/mL recombinant human TNFα (PeproTech). For immunoblotting and qRT-PCR analyses, cells were lysed after 30 min or 1h of incubation with TNFα, respectively. For Transepithelial electrical resistance (TEER) measurements, cells were incubated for 24 h with TNFα. Viability of cells incubated with HBSS at various pH or with BCFAs was assessed using the CellTiter-Glo® luminescent cell viability assay (Promega), according to the manufacturer's protocol.
BCFAs are weak organic acids, which exist in solution either as acidic (R—COOH) or basic (R—COO^−) forms.

For a further series, the system named is CACO2 cells. Kind of series: Luminol-based ROS detection assay in CACO2 cells. In kind it is cell-based. As for the experimental part:
Luminol was dissolved in NaOH 0.1 M to obtain a 50 mM stock solution. A stock solution of 1000 U/mL HRP (HorseRadish Peroxidase) was prepared in parallel in PBS (Phosphate-Buffered Saline). After treatment with BCFAs or SCFAs or incubation in HBSS at pH 5.2, CACO2 and HeLa culture media were collected and centrifugated for 5 min at 13,000×g at room temperature. The pH of these culture media was then buffered to 7.5 to avoid pH-dependent interferences with luminol activity. Luminol (1 mM final concentration) and HRP (4 U/mL) were finally added to each culture media and luminescence was quantified immediately on a luminometer (Tecan).

The subject of the next series is IκBα. Kind of series: Immunoblot of IκBα levels in TNFα-stimulated CACO2 cells. Format: cell-based. As to conditions: 1 hour pre-incubation with 5 mM, then 30 min 100 ng/mL TNFα. The protocol:
as §1
Cell lysates and protein extracts from intestinal tissues in Laemmli buffer were boiled for 5 min, sonicated and protein content was resolved using SDS-polyacrylamide gel electrophoresis. Proteins were then transferred on PVDF membranes (GE Healthcare) and detected after incubation with specific antibodies using ECL Clarity Western blotting Substrate (BioRad). […] Quantifications of proteins were performed on a ChemiDoc Imaging System (Bio-rad). SUMO2/3-conjugated proteins levels (above 50 kDa), SUMO1-conjugated protein levels (above 50 kDa), and other specific protein levels were normalized either by the level of total proteins above 50 kDa (determined using the TGX-stain free imaging technology; Bio-rad) or by the level of actin in each lysate.
On the technique in general: A western blot detects proteins with antibodies after separation by electrophoresis.

In series [2] the test system is DSS-treated mice. Kind of series: Fecal calprotectin in DSS mouse model of colitis. Format: in vivo. As to conditions: 2% DSS in drinking water 7 days, 150 mM in drinking water, 3 days after the end of DSS. As for the experimental part:
Eight-weeks-old C57Bl/6JRj male mice (Janvier Labs, Le-Genest-Saint-Isle, France) were housed at 23° C. (5 animals/cage) with a 12-h light-dark cycle in regular open cages. All animals were fed with a non-sterilized standard rodent diet (3430.PM.S10, Serlab, France). Drinking water was not sterilized. Animals were acclimatized to the animal facility for 1 week before experimentations. To monitor the effect of BCFAs on chemically-induced intestinal inflammation, animals were split in three groups (8 animals/group): one group had no treatment, one group was treated with DSS (Dextran Sulfate Sodium, MB Biomedicals, France; 2% in drinking water) from D4 to D11 to induce colitis and one group was treated both with sodium isobutyrate (150 mM in drinking water, pH 7.4; from DO to D13) and DSS (D4 to D11). Fecal pellets were weighted and resuspended in 600 μL of PBS with 1% protease and phosphatase inhibitors (Sigma-Aldrich, USA). After a centrifugation step (12000×g, 15 min, 4° C.), calprotectin was quantified in the obtained supernatants using the S100A8 DuoSet® kit (R&D Systems, Minneapolis), according to the manufacturer's protocol.

Series [3] concerns DSS-treated mice. Kind of series: Colonic permeability (Lucifer yellow flux, Ussing chambers) in DSS mouse model of colitis. Format: in vivo. As to conditions: 2% DSS in drinking water 7 days, 150 mM in drinking water, three days after the end of DSS. The protocol:
Eight-weeks-old C57Bl/6JRj male mice (Janvier Labs, Le-Genest-Saint-Isle, France) were housed at 23° C. (5 animals/cage) with a 12-h light-dark cycle in regular open cages. All animals were fed with a non-sterilized standard rodent diet (3430.PM.S10, Serlab, France). Drinking water was not sterilized. Animals were acclimatized to the animal facility for 1 week before experimentations. To monitor the effect of BCFAs on chemically-induced intestinal inflammation, animals were split in three groups (8 animals/group): one group had no treatment, one group was treated with DSS (Dextran Sulfate Sodium, MB Biomedicals, France; 2% in drinking water) from D4 to D11 to induce colitis and one group was treated both with sodium isobutyrate (150 mM in drinking water, pH 7.4; from DO to D13) and DSS (D4 to D11). Colon samples were cut along the mesenteric border. Colonic permeability was assessed by measuring Lucifer yellow (440 Da; Sigma-aldrich) fluxes in Ussing chambers with an exchange surface of 0.07 cm2 (Harvard Apparatus, Holliston, MA). Lucifer yellow (250 μg/ml) was added to the mucosal side. After 3 h at 37° C., medium from the serosal side was removed and the fluorescence level of Lucifer yellow (excitation: 428 nm; emission: 540 nm) was quantified.

Molecules are shown by their SMILES.

For `CC(C)C(=O)[O-].[Na+]` [sodium isobutyrate], in series [1], the “concentration present as isobutyrate” value is around 4990 µM, the “concentration present as isobutyric acid” value was around 10 µM, the “pH of HBSS medium after addition” value is around 7.5 and the “proportion present as isobutyrate” value is around 99.8%. Moreover, the “proportion present as isobutyric acid” value in series [1] was around 0.2%. The “ROS detection after incubation with sodium salts (basic forms)” value in the series on CACO2 cells is given as “no ROS were detected”. In addition, the “TNFα-triggered degradation of IκBα” value in the series with IκBα is “not observed”. Also, the “level of fecal calprotectin” value with DSS-treated mice [2] was “significantly decreases”. The DSS-induced colonic hyperpermeability result in the series on DSS-treated mice [3] is on record as “significantly decreases”.

The record behind these values is US20250127743A1, “USE OF BRANCHED CHAIN FATTY ACIDS (BCFAS) FOR THE TREATMENT OF INTESTINAL INFLAMMATION” (priority 2021, published 2025).
